From PMC11358582, “Discovery of a potential bladder cancer inhibitor CHNQD-01281 by regulating EGFR and promoting infiltration of cytotoxic T cells” (Marine Life Science & Technology, 2024)

Key:
TE-1 cells = test: MTT cell proliferation assay; format: cell-based, human
Protocol: (§1) Human tumor cell lines Eca-109, BEL-7402, BxPC-3, HCT-116, HT-29, T24, HCT-8, SGC-7901, DLD-1, TE-1, BT-549, MGC-803 and human hepatocyte cell line L-02 were cultured in Roswell Park Memorial Institute (RPMI) 1640. HuH-7 and SW-480 were cultured in Dulbecco’s modified Eagle’s medium (DMEM). J82, HepG2, Hela, U87 were cultured in Minimum Essential Medium (MEM). Murine bladder cancer cell line, MB49, was cultured in DMEM. The above-mentioned culture medium was provided by GIBCO (Grand Island, USA), contained 10% fetal bovine serum (PAN, Germany), 10 mg/mL of streptomycin, and 10 kU/mL penicillin (Beyotime, China).
(§2) Cells were seeded in 96-well plates and incubated with indicated concentrations of CHNQD-01281 for indicated periods. Next, medium was discarded and MTT (5 mg/mL) was added to each well. The cells were incubated at 37 °C for another 4 h. After that, supernatant was discarded, and DMSO was added and incubated at 37 °C for 15 min. Finally, absorbance was measured at 570 nm (Molecular Devices, USA).
(§3) To investigate whether CHNQD-01281 had selective inhibitory effect on cancer cell lines, a variety of human tumor cell lines were assayed by MTT, such as bladder cancer cell lines (J82 and T24), colorectal cancer cell lines (HCT-116, HT-29, HCT-8, DLD-1 and SW-480), cervical cancer cell line (Hela), esophageal cancer cell lines (TE-1 and Eca-109), breast cancer cell line (BT-549), gastric carcinoma cell lines (MGC-803 and SGC-7901), glioma cell line (U87), pancreatic carcinoma cell line (BxPC-3) and hepatocellular carcinoma cell lines (Hep G2, BEL-7402 and HuH-7) (Fig. 2A).

T24 cells = test: MTT cell proliferation assay; format: cell-based, human
Protocol: as §1, §2, §3

[1] = Tissue distribution in tumor and main organs; format: in vivo, C57BL/6 mice; conditions: tumor, heart, duodenum and spleen
Protocol: To further investigate the safety profile of CHNQD-01281 in vivo, the HE staining of the heart, liver, spleen, lung, kidney and duodenum of C57 mice were analyzed after the single dose of CHNQD-01281 (100 mg/kg, i.p.). […] The distribution of CHNQD-01281 in tumor and main organs of C57BL/6 mice was then analyzed.
Fig. S14. Safety profile and tissue distribution of CHNQD-01281 in vivo. A Representative H&E staining images (scale bar: 50 μm) of main organs from vehicle and CHNQD-01281 (100 mg/kg, ip.) treated C57BL/6 mice (n = 3). B Bodyweight evaluation of mouse after treatment with vehicle and CHNQD-01281. C Tissue distribution of CHNQD-01281 in C57BL/6 mice (n = 3).

MB49 tumor = test: MB49 homologous (syngeneic) tumor model; format: in vivo, C57BL/6 mice
Protocol: Specific pathogen free (SPF)-grade C57BL/6 mice and BALB/c-nu mice were purchased from Jinan Pengyue Experimental Animal Center (license No. SCXK 20190003). The protocol was approved by the Research Review Committee of the Ocean University of China. All mice were housed in 12-h light and 12-h dark conditions in which the humidity was 50% ± 10% and the temperature was 22 ± 2 °C. All mice had free access to food and water. The human bladder cancer cell line T24 was injected subcutaneously into BALB/c-nu mice to construct a xenograft tumor model. The cell suspension of mouse bladder cancer cell line MB49 was injected into C57BL/6 mice subcutaneously to construct a syngeneic tumor model.
Fixed tissues were embedded in paraffin and then sectioned. The specimens were incubated with antibodies against Ki67, CD3, CD4, CD8 (Servicebio, China) and EGFR (ABclonal, China) at 4 °C overnight. The next day, the slides were washed with 1 × PBST three times for 5 min each and stained with the secondary antibodies and Hoechst 33342 dye (Beyotime, China) for 60 min for IF. For IHC staining, the sections were developed with a rabbit/mouse HRP kits (DAB) (Beyotime, China) according to the manufacturer’s instructions.
In addition, apoptosis, necrosis, and increased eosinophil cytoplasm were observed and there was a large number of lymphocyte infiltration in the treatment group.

J82 cell line = test: Wound healing assay (migration); format: cell-based, human; conditions: J82, 0.16 µmol/L, 24 h
Protocol: (§4) Fig. 3 Effects of CHNQD-01281 on colony formation and migration of T24 and J82 cell lines. A T24 and J82 cell lines were cultured for 12 days with varying concentrations of CHNQD-01281 (0−0.16 μmol/L) and colonies were fixed and dyed with 0.1% crystal violet. B The relative colony numbers are shown. C Scratches of T24 and J82 cell colonies were generated with pipette tips (200 μL). After 24 h of incubation with 0−0.16 μmol/L CHNQD-01281, representative images were captured. D Histograms display the healed rate. Data are represented as the mean ± SD of three independent experiments. **P < 0.01, ***P < 0.001 and ****P < 0.0001 versus the 0 μmol/L group
(§5) Metastasis and invasiveness are important indications for progression of bladder cancer. […] At the concentration of 0.16 µmol/L, the healed rate of T24 and J82 was 21% and 29%, respectively.

T24 cell line [2] = test: Wound healing assay (migration); format: cell-based, human; conditions: T24, 0.16 µmol/L, 24 h
Protocol: as §4, §5

T24 cell line [3] = test: Colony formation assay; format: cell-based; conditions: Homo sapiens, T-24, 288 h, 12 days, read-out: inhibition rate on colony formation
Protocol: T24 and J82 cell lines were seeded in 6-well plates at 500 cells/well. The cells were cultured overnight in medium. Compound CHNQD-01281 was added according to the concentration gradient, and the cells were placed in a 37 °C cell incubator containing 5% CO2 for 12 days. The cells were then fixed with 4% paraformaldehyde for 15 min and stained with crystal violet for 30 min. After that, pictures were taken and colony numbers were counted. The clone formation rate relative to the solvent control group was calculated.
Cell proliferation ability was also detected by colony formation assay (Kabakov et al. [2018]), and the results are shown in Fig. 3A−B. CHNQD-01281 was applied for 12 days to detect long-term proliferation inhibition of T24 and J82 cell lines.

C[C@H]1CCC/C=C/[C@@H]2C[C@H](O)C[C@H]2[C@H](OC(=O)/C=C/c2cccnc2)/C=C/C(=O)O1 [CHNQD-01281, Brefeldin A 4-O-3-(pyridin-3-yl) acrylate]
IC90 (TE-1 cells; Homo sapiens, TE-1, MTT): > 1 µM | IC50 (TE-1 cells; Homo sapiens, TE-1, MTT, 72 h): 0.62 µM | SI (selectivity index) (TE-1 cells; L-02 versus TE-1): 1.87 | inhibition at 0.125 µM (T24 cells; Homo sapiens, T-24, T24, 0.125 µmol/L, 120 h, read-out: inhibition of growth): ~100% | inhibition at 1 µM (T24 cells; Homo sapiens, T-24, T24, 1 µmol/L (highest concentration), 24 h): < 50% | IC90 (T24 cells; Homo sapiens, T-24, T24, MTT): 0.3 µM | IC50 (T24 cells; Homo sapiens, T-24, T24, MTT, 72 h): 0.079 µM | SI (selectivity index) (T24 cells; L-02 versus T24): 14.68 | time of rapid concentration elimination [1]: ≤ 1 h | mice with tumor disappearance (MB49 tumor; 10 mg/kg intratumoral, no recurrence within 30 days after cessation): 20% | life prolongation rate (ILS) (MB49 tumor; 10 mg/kg, intratumoral injection, QD): 68.16% | infiltration of CD3+, CD4+ and CD8+ T cells (immunofluorescence) (MB49 tumor; 10 mg/kg, intratumoral injection, QD, tumor tissue): significantly increased | healed rate (J82 cell line): 29% | healed rate (T24 cell line [2]): 21% | inhibition at 0.04 µM (T24 cell line [3]; T24, 0.04 µmol/L): 17% | inhibition at 0.08 µM (T24 cell line [3]; T24, 0.08 µmol/L): 52.5% | inhibition at 0.16 µM (T24 cell line [3]; T24, 0.16 µmol/L): 95.5%
